According to the supplement of paper PMC13380429:

What was measured:
Settings in all cases: 72 h
Caco-2 [1] = experiment: cell viability relative to DMSO; higher = less toxic
HepG2 [2] = experiment: as above
U2OS [3] = experiment: as above
Vero E6 [4] = experiment: as above
Caco-2 [5] = experiment: relative viability EC50 (midpoint between 100% and the lowest measured viability); higher = less toxic
HepG2 [6] = experiment: as above
U2OS [7] = experiment: as above
Vero E6 [8] = experiment: as above
Caco-2 [9] = experiment: drug sensitivity score (DSS) for viability; higher = more toxic; extreme values may be limits of the assay
HepG2 [10] = experiment: as above
U2OS [11] = experiment: as above
Vero E6 [12] = experiment: as above
Calu-3 [13] = experiment: cell viability relative to DMSO; higher = less toxic
Calu-3 [14] = experiment: relative viability EC50 (midpoint between 100% and the lowest measured viability); higher = less toxic
Calu-3 [15] = experiment: drug sensitivity score (DSS) for viability; higher = more toxic; extreme values may be limits of the assay

| Structure (SMILES) | cell viability (Caco-2 [1]; 1 nM) [%] | cell viability (Caco-2 [1]; 10 nM) [%] | cell viability (Caco-2 [1]; 100 nM) [%] | cell viability (Caco-2 [1]; 1000 nM) [%] | cell viability (Caco-2 [1]; 10000 nM) [%] | cell viability (HepG2 [2]; 1 nM) [%] | cell viability (HepG2 [2]; 10 nM) [%] | cell viability (HepG2 [2]; 100 nM) [%] | cell viability (HepG2 [2]; 1000 nM) [%] | cell viability (HepG2 [2]; 10000 nM) [%] | cell viability (U2OS [3]; 1 nM) [%] | cell viability (U2OS [3]; 10 nM) [%] | cell viability (U2OS [3]; 100 nM) [%] | cell viability (U2OS [3]; 1000 nM) [%] | cell viability (U2OS [3]; 10000 nM) [%] | cell viability (Vero E6 [4]; 1 nM) [%] | cell viability (Vero E6 [4]; 10 nM) [%] | cell viability (Vero E6 [4]; 100 nM) [%] | cell viability (Vero E6 [4]; 1000 nM) [%] | cell viability (Vero E6 [4]; 10000 nM) [%] | relative viability EC50 (Caco-2 [5]) [µM] | relative viability EC50 (HepG2 [6]) [µM] | relative viability EC50 (U2OS [7]) [µM] | relative viability EC50 (Vero E6 [8]) [µM] | drug sensitivity score (Caco-2 [9]) | drug sensitivity score (HepG2 [10]) | drug sensitivity score (U2OS [11]) | drug sensitivity score (Vero E6 [12]) | cell viability (Calu-3 [13]; 1 nM) [%] | cell viability (Calu-3 [13]; 10 nM) [%] | cell viability (Calu-3 [13]; 100 nM) [%] | cell viability (Calu-3 [13]; 1000 nM) [%] | cell viability (Calu-3 [13]; 10000 nM) [%] | relative viability EC50 (Calu-3 [14]) [µM] | drug sensitivity score (Calu-3 [15]) |
| --- | --- | --- | --- | --- | --- | --- | --- | --- | --- | --- | --- | --- | --- | --- | --- | --- | --- | --- | --- | --- | --- | --- | --- | --- | --- | --- | --- | --- | --- | --- | --- | --- | --- | --- | --- |
| CC(C)(C)CC(=O)Nc1c(F)cc(C(=O)/N=c2\sccn2COP(=O)(O)O)cc1F | 97.9 | 109 | 99.4 | 104 | 92.3 | 101 | 114 | 94.8 | 98.9 | 96.9 | 95.8 | 101 | 97 | 98.2 | 95.5 | 107 | 104 | 102 | 96.5 | 94.3 | > 10 | > 10 | > 10 | > 10 | 0 | 0 | 0 | 0 |  |  |  |  |  |  |  |
| CN1C(=O)CC(C)(c2ccccc2)C1=O (stereo unspecified) [methsuximide] | 97.5 | 102 | 99.1 | 105 | 96.7 | 98.2 | 94.4 | 101 | 100 | 104 | 97.1 | 101 | 94 | 96.6 | 91.2 | 96.1 | 97.1 | 98.7 | 96.1 | 95.2 | > 10 | > 10 | > 10 | > 10 | 0 | 0 | 0 | 0 |  |  |  |  |  |  |  |
| O=C1c2ccccc2-n2c1nc1ccccc1c2=O [tryptanthrin] | 101 | 107 | 110 | 104 | 79.7 | 88.7 | 87.5 | 90.7 | 98.2 | 40.5 | 96.5 | 97.7 | 101 | 102 | 97.7 | 104 | 99.6 | 101 | 95.7 | 96.9 | > 10 | 2.94 | > 10 | > 10 | 0.4 | 3.5 | 0 | 0 |  |  |  |  |  |  |  |
| CO/N=C(\C(=O)N[C@@H]1C(=O)N2C(C(=O)O)=C(CSc3nc(=O)c(O)nn3C)CS[C@H]12)c1csc(N)n1 [ceftriaxone] |  |  |  |  |  | 93 | 96.7 | 96.5 | 97.3 | 97.9 | 100 | 94.2 | 94.5 | 95.7 | 97.2 | 96.6 | 102 | 96 | 106 | 95.5 |  | > 10 | > 10 | > 10 |  | 0 | 0 | 0 | 92.7 | 94.5 | 95.2 | 92 | 105 | > 10 | 0 |
| O=C1C[C@@H]2OCC=C3CN4CC[C@]56c7ccccc7N1[C@H]5[C@H]2[C@H]3C[C@H]46 [strychnine] | 97.8 | 91.1 | 83 | 85.6 | 90.2 | 113 | 93.7 | 106 | 83.1 | 96.3 | 97.2 | 101 | 96.8 | 103 | 95.8 | 102 | 98.8 | 98.3 | 87.1 | 88.7 | > 10 | > 10 | > 10 | > 10 | 3.7 | 1.7 | 0 | 0.9 |  |  |  |  |  |  |  |
| CSC[C@H](N)C(=O)O [S-methylcysteine] | 79.7 | 105 | 86.5 | 101 | 97.3 | 89.3 | 100 | 95.6 | 92.3 | 99.3 | 101 | 98.7 | 104 | 98.1 | 102 | 92.8 | 93.6 | 97.1 | 96.3 | 105 | > 10 | > 10 | > 10 | > 10 | 0 | 0 | 0 | 0 |  |  |  |  |  |  |  |
| CCCCc1ccc2[nH]c(NC(=O)OC)nc2c1 [parbendazole] | 104 | 94.7 | 91.7 | 59.9 | 48.9 | 82.9 | 98.3 | 98.2 | 51.7 | 31.5 | 96.4 | 98 | 93.2 | 59.2 | 32.7 | 96 | 98.2 | 94.5 | 39 | 28.8 | 0.353 | 0.641 | 0.676 | 0.38 | 8.3 | 9.6 | 8.8 | 12 | 103 | 96.1 | 96.9 | 69.8 | 57.2 |  | 5.9 |
| COC(=O)c1cc2c(C(F)(F)F)cc(-c3ccccc3)cc2n1O [NHI-2] | 106 | 90.2 | 102 | 90.1 | 91.2 | 95.1 | 103 | 110 | 98.2 | 99.3 | 103 | 98.1 | 102 | 97.1 | 101 | 104 | 104 | 98.8 | 101 | 97.5 | > 10 | > 10 | > 10 | > 10 | 0 | 0 | 0 | 0 |  |  |  |  |  |  |  |
| CC(=O)c1cnc2ccc(-c3cc(Cl)c(O)c(Cl)c3)nc2c1N[C@H]1CC[C@H](CN(C)C)CC1 [OTS167] | 98.5 | 98.4 | 41.1 | 34.8 | 12 | 108 | 84.7 | 11.4 | 5.1 | 3.9 | 97.6 | 86.7 | 10.7 | 5.5 | 0 | 96.4 | 100 | 6.3 | 11.7 | 2.6 | 0.0765 | 0.0253 | 0.0295 | 0.0351 | 21.5 | 30.3 | 30.5 | 29.2 |  |  |  |  |  |  |  |
| C/C(=C\c1csc(C)n1)[C@@H]1C[C@@H]2O[C@]2(C)CCC[C@H](C)[C@H](O)[C@@H](C)C(=O)C(C)(C)[C@@H](O)CC(=O)O1 [epothilone-B] | 79.8 | 54.2 | 47.6 | 52.8 | 50.6 | 52.3 | 29.7 | 18.4 | 19.8 | 32 | 50.3 | 39.9 | 23.9 | 30.7 | 44.3 | 77.6 | 48.9 | 29.9 | 35.7 | 45.4 | 0.0016 | < 0.001 | < 0.001 | 0.0026 | 24 | 37.2 | 33.1 | 29.5 | 91.8 | 66 | 53.8 | 54.7 | 59.3 |  | 19 |
| CC/C=C(\C(=O)N[C@@H]1C(=O)N2C(C(=O)OCOC(=O)C(C)(C)C)=C(COC(N)=O)CS[C@H]12)c1csc(N)n1 [cefcapene-pivoxil] | 104 | 101 | 117 | 113 | 94.4 | 107 | 93.8 | 89.7 | 78.8 | 86.4 | 97.2 | 106 | 98.5 | 103 | 103 | 109 | 94.7 | 110 | 111 | 102 | > 10 | > 10 | > 10 | > 10 | 0 | 3.3 | 0 | 0 |  |  |  |  |  |  |  |
| CCC(=O)OCC(=O)[C@@]1(OC(=O)CC)[C@@H](C)C[C@H]2[C@@H]3CCC4=CC(=O)C=C[C@]4(C)[C@@]3(F)[C@@H](O)C[C@@]21C [BETAMETHASONE 17,21-DIPROPIONATE] | 99 | 97.8 | 99.9 | 111 | 98.2 | 103 | 88.3 | 101 | 95.5 | 110 | 91.6 | 96.8 | 93.7 | 97 | 102 | 103 | 95.2 | 91.2 | 92.9 | 99.1 | > 10 | > 10 | > 10 | > 10 | 0 | 0 | 0 | 0 |  |  |  |  |  |  |  |
| NC(=O)CCCCC1CCSS1 (stereo unspecified) [lipoamide] | 110 | 90.3 | 92.4 | 97.9 | 102 | 88.4 | 108 | 104 | 102 | 90.9 | 102 | 99.8 | 99.1 | 98.2 | 98 | 103 | 99.2 | 102 | 106 | 99.2 | > 10 | > 10 | > 10 | > 10 | 0 | 0 | 0 | 0 |  |  |  |  |  |  |  |
